In US8754079B2, “Cycloalkyl containing thienopyrimidines for pharmaceutical compositions” (Boehringer Ingelheim International GmbH, priority 2010, dated 2014) one finds IC50 data, which are given here for 56 molecules.

By IC50 is commonly meant the midpoint of a concentration-inhibition curve. Low readings indicate greater potency in that assay, high ones weaker potency in that assay.

The assay has as its target T1, MNK2 (Homo sapiens, UniProt Q9HBH9).
T1 construct: the open reading frames of human Mnk1 and Mnk2a were amplified from cDNA; made in house; host or cells: E. coli BL21
As to the kind of experiment: Mnk2a in vitro kinase assay (indirect fluorescence polarization). Conditions: pre-activated GST-Mnk2a 2.5 nM, 20 μM ATP, 30 μM substrate peptide. The class given is biochemical. Summed up:
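Human GST-Mnk2a was expressed in E. coli and activated in vitro with 150 nM pre-activated ERK2 and 50 μM ATP in HEPES pH 7.4/MgCl2 buffer (45 min, 30 °C). Activity on an eIF4E Ser209-derived 12mer peptide was read by competitive fluorescence polarization with a phospho-specific antibody.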

T1 sequence (Q9HBH9 whole entry): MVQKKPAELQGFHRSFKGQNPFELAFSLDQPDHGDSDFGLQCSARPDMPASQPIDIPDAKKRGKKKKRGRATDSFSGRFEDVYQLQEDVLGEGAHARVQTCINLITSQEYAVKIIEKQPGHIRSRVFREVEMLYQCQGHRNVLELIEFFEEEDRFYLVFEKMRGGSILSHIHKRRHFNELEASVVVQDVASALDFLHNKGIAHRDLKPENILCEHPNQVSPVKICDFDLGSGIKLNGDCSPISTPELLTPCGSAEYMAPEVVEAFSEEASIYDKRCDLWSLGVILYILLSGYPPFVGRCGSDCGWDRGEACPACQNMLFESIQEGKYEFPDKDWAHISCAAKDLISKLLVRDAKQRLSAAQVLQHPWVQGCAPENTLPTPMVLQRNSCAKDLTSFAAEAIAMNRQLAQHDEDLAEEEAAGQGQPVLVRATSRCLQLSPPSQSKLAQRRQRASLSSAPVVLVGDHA

In the case of `COC1CCCC(Oc2cc(F)ccc2Nc2ncnc3sc(C(=O)NCC#CCN)c(C)c23)C1` (centres unmarked) [Example 80], it took 31 nM to reach half-maximal inhibition (IC50). This lies in the double-digit nanomolar range.

The molecule `COC1CCCC(Oc2cc(F)ccc2Nc2ncnc3sc(C(=O)NCCCCO)c(C)c23)C1` (centres unmarked) [Example 81] registered an IC50 of 98 nM.

For the molecule `COC1CCCC(Oc2cc(F)ccc2Nc2ncnc3sc(C(=O)NCC4COCCN4)c(C)c23)C1` (centres unmarked) [Example 84], inhibition was half-maximal at 91 nM (IC50).

`COC1CCCC(Oc2cc(F)ccc2Nc2ncnc3sc(C(=O)NC4CCN(C)CC4)c(C)c23)C1` (centres unmarked) [Example 86]: the midpoint of inhibition, the IC50, lay at 93 nM. This IC50 and that of the molecule before are within 1.5-fold of each other.

`COC1CCCC(Oc2cc(F)ccc2Nc2ncnc3sc(C(=O)NCCCN4CCCC4)c(C)c23)C1` (centres unmarked) [Example 87] came in with an IC50 of 38 nM.

Consider `COC1CCCC(Oc2cc(F)ccc2Nc2ncnc3sc(C(=O)NC4CC4N)c(C)c23)C1` (centres unmarked) [Example 90], for which inhibition was half-maximal at 34 nM (IC50). This IC50 and that of the molecule before are within 1.5-fold of each other.

`COC1CCCC(Oc2cc(F)ccc2Nc2ncnc3sc(C(=O)NCC#N)c(C)c23)C1` (centres unmarked) [Example 94] registered an IC50 of 21 nM. This IC50 is about 1.6-fold lower than that of the molecule before.

The molecule `COC1CCCC(Oc2cc(F)ccc2Nc2ncnc3sc(C(=O)NCC#CCN(C)C)c(C)c23)C1` (centres unmarked) [Example 96] showed an IC50 of 14 nM.

`COC1CCCC(Oc2cc(F)ccc2Nc2ncnc3sc(C(=O)NCC4COCCN4)c(C)c23)C1` (centres unmarked) [Example 99] displayed a half-maximal inhibitory concentration (IC50) of 36 nM.

Turning to `COC1CCCC(Oc2cc(F)ccc2Nc2ncnc3sc(C(=O)NC4CCN(C)CC4)c(C)c23)C1` (centres unmarked) [Example 102], the half-maximal inhibitory concentration (IC50) was 34 nM.

`COC1CCCC(Oc2cc(F)ccc2Nc2ncnc3sc(C(=O)NCc4cn(C)cn4)c(C)c23)C1` (centres unmarked) [Example 107] displayed a concentration for half-maximal inhibition (IC50) of 18 nM.

The molecule `COC1CCCC(Oc2cc(F)ccc2Nc2ncnc3sc(C(=O)NCCCN(C)C)c(C)c23)C1` (centres unmarked) [Example 108] yielded an IC50 of 19 nM.

`COC1CCCC(Oc2ncccc2Nc2ncnc3sc(C(=O)NCC#N)c(C)c23)C1` (centres unmarked) [Example 115] displayed a 50% inhibitory concentration (IC50) of 19 nM.

For the molecule `COC1CCCC(Oc2ncccc2Nc2ncnc3sc(C(=O)NCC#CCN(C)C)c(C)c23)C1` (centres unmarked) [Example 117], the IC50 is 12 nM.

As to `COC1CCCC(Oc2ncccc2Nc2ncnc3sc(C(=O)NC4CCN(C)CC4)c(C)c23)C1` (centres unmarked) [Example 123], the IC50 amounted to 26 nM.

The molecule `Cc1c(C(N)=O)sc2ncnc(Nc3ccc(F)cc3O[C@H]3CC[C@@H](O)CC3)c12` [Example 150] registered an IC50 of 11 nM.

`Cc1c(C(=O)NCCCN(C)C)sc2ncnc(Nc3ccc(F)cc3O[C@H]3CC[C@@H](O)CC3)c12` [Example 151, 4-[4-Fluoro-2-(cis-4-hydroxy-cyclohexyloxy)-phenylamino]-5-methyl-thieno[2,3-d]pyrimidine-6-carboxylic acid (3-dimethylamino-propyl)-amide] registered an IC50 of 36 nM.

Consider `Cc1c(C(=O)NCCCN(C)C)sc2ncnc(Nc3ccc(F)cc3O[C@H]3CC[C@H](O)CC3)c12` [Example 152, 4-[4-Fluoro-2-(trans-4-hydroxy-cyclohexyloxy)-phenylamino]-5-methyl-thieno[2,3-d]pyrimidine-6-carboxylic acid (3-dimethylamino-propyl)-amide], for which the IC50 amounted to 11 nM.

In turn, `Cc1c(C(=O)NCCCN2CCCC2)sc2ncnc(Nc3ccc(F)cc3O[C@H]3CC[C@H](O)CC3)c12` [Example 153, 4-[4-Fluoro-2-(trans-4-hydroxy-cyclohexyloxy)-phenylamino]-5-methyl-thieno[2,3-d]pyrimidine-6-carboxylic acid (3-pyrrolidin-1-yl-propyl)-amide] registered an IC50 of 9 nM.

Turning to `Cc1c(C(=O)NCCO)sc2ncnc(Nc3ccc(F)cc3O[C@H]3CC[C@H](O)CC3)c12` [Example 155], the midpoint of inhibition, the IC50, lay at 9 nM.

As for `Cc1c(C(=O)NCCCn2ccnc2)sc2ncnc(Nc3ccc(F)cc3O[C@H]3CC[C@H](O)CC3)c12` [Example 156], 13 nM corresponded to half-maximal inhibition (IC50).

In turn, `Cc1c(C(N)=O)sc2ncnc(Nc3ccc(F)cc3O[C@H]3CC[C@H](O)CC3)c12` [Example 158, 4-[4-Fluoro-2-(trans-4-hydroxy-cyclohexyloxy)-phenylamino]-5-methyl-thieno[2,3-d]pyrimidine-6-carboxylic acid amide] showed an IC50 of 4 nM.

As to `Cc1c(C(=O)N[C@H]2C[C@@H]2N)sc2ncnc(Nc3ccc(F)cc3O[C@H]3CC[C@H](O)CC3)c12` [Example 159], inhibition was half-maximal at 16 nM (IC50).

The molecule `Cc1c(C(=O)NCC#CCN)sc2ncnc(Nc3ccc(F)cc3O[C@H]3CC[C@H](O)CC3)c12` [Example 160] yielded a 50% inhibitory concentration (IC50) of 6 nM.

Molecule `Cc1c(C(=O)NCCCCO)sc2ncnc(Nc3ccc(F)cc3O[C@H]3CC[C@H](O)CC3)c12` [Example 161] came in with a half-inhibitory concentration (IC50) of 17 nM. Against the preceding molecule, the IC50 is about 2.8-fold higher.

The molecule `Cc1c(C(=O)NCc2cnco2)sc2ncnc(Nc3ccc(F)cc3O[C@H]3CC[C@H](O)CC3)c12` [Example 162] had a half-maximal inhibitory concentration (IC50) of 10 nM.

`Cc1c(C(=O)NCC#N)sc2ncnc(Nc3ccc(F)cc3O[C@H]3CC[C@H](O)CC3)c12` [Example 163] gave an IC50 of 9 nM. This IC50 and that of the molecule before are within 1.5-fold of each other.

Take `CNC(=O)CNC(=O)c1sc2ncnc(Nc3ccc(F)cc3O[C@H]3CC[C@H](O)CC3)c2c1C` [Example 164]: half-maximal inhibition (IC50) required 16 nM.

Turning to `Cc1c(C(=O)NCC#CCN(C)C)sc2ncnc(Nc3ccc(F)cc3O[C@H]3CC[C@H](O)CC3)c12` [Example 165], the IC50 stood at 8 nM. This IC50 is about 2-fold lower than that of the molecule before.

As to `Cc1c(C(=O)NCC2CNCCO2)sc2ncnc(Nc3ccc(F)cc3O[C@H]3CC[C@H](O)CC3)c12` (some centres unmarked) [Example 166], half-maximal inhibition (IC50) required 11 nM.

`Cc1c(C(=O)N[C@H]2CC[C@H](O)CC2)sc2ncnc(Nc3ccc(F)cc3O[C@H]3CC[C@H](O)CC3)c12` [Example 168] displayed an IC50 of 20 nM.

In turn, `Cc1c(C(=O)NCCN2CCCCC2)sc2ncnc(Nc3ccc(F)cc3O[C@H]3CC[C@H](O)CC3)c12` [Example 170] yielded an IC50 of 19 nM.

In the case of `Cc1c(C(=O)NCC(C)O)sc2ncnc(Nc3ccc(F)cc3O[C@H]3CC[C@H](O)CC3)c12` (some centres unmarked) [Example 171], the IC50 was determined as 43 nM.

The molecule `Cc1c(C(=O)NCCCO)sc2ncnc(Nc3ccc(F)cc3O[C@H]3CC[C@H](O)CC3)c12` [Example 172] returned an IC50 of 16 nM.

For the molecule `CCNC(=O)c1sc2ncnc(Nc3ccc(F)cc3O[C@H]3CC[C@H](O)CC3)c2c1C` [Example 173], the IC50 stood at 14 nM. The IC50 values of the last two molecules are within 1.5-fold of each other.

The molecule `Cc1c(C(=O)NCc2cn(C)cn2)sc2ncnc(Nc3ccc(F)cc3O[C@H]3CC[C@H](O)CC3)c12` [Example 174] displayed an IC50 of 10 nM. This IC50 and that of the molecule before are within 1.5-fold of each other.

Consider `CO[C@H]1CC[C@H](Oc2cc(F)ccc2Nc2ncnc3sc(C(N)=O)c(C)c23)CC1` [Example 175, 4-[4-Fluoro-2-(trans-4-methoxy-cyclohexyloxy)-phenylamino]-5-methyl-thieno[2,3-d]pyrimidine-6-carboxylic acid amide], for which half-maximal inhibition (IC50) required 9 nM. This IC50 and that of the molecule before are within 1.5-fold of each other.

For `CO[C@H]1CC[C@H](Oc2cc(F)ccc2Nc2ncnc3sc(C(=O)NCC#CCN)c(C)c23)CC1` [Example 178], the IC50 is 16 nM.

On to `CO[C@H]1CC[C@H](Oc2cc(F)ccc2Nc2ncnc3sc(C(=O)NCC4COCCN4)c(C)c23)CC1` (some centres unmarked) [Example 179], for which the IC50 amounted to 30 nM.

The molecule `CO[C@H]1CC[C@H](Oc2cc(F)ccc2Nc2ncnc3sc(C(=O)NCC4CNCCO4)c(C)c23)CC1` (some centres unmarked) [Example 180] had an IC50 of 16 nM. Compared with the last molecule, the IC50 is about 1.9-fold lower.

As for `COC1CCC(Oc2cc(F)ccc2Nc2ncnc3sc(C(=O)NCCCCO)c(C)c23)CC1` (centres unmarked) [Example 181], it took 21 nM to reach half-maximal inhibition (IC50).

`CO[C@H]1CC[C@H](Oc2cc(F)ccc2Nc2ncnc3sc(C(=O)NCC#N)c(C)c23)CC1` [Example 182]: it took 15 nM to reach half-maximal inhibition (IC50).

Molecule `CO[C@H]1CC[C@H](Oc2cc(F)ccc2Nc2ncnc3sc(C(=O)N[C@H]4CC[C@H](O)CC4)c(C)c23)CC1` [Example 183] registered a concentration for half-maximal inhibition (IC50) of 23 nM. Against the preceding molecule, the IC50 is about 1.5-fold higher.

As to `CO[C@H]1CC[C@H](Oc2cc(F)ccc2Nc2ncnc3sc(C(=O)NCC(C)O)c(C)c23)CC1` (some centres unmarked) [Example 184], the IC50 was found to be 38 nM.

Molecule `CO[C@H]1CC[C@H](Oc2cc(F)ccc2Nc2ncnc3sc(C(=O)NCc4cnco4)c(C)c23)CC1` [Example 185] showed an IC50 of 17 nM.

For the molecule `CO[C@H]1CC[C@H](Oc2cc(F)ccc2Nc2ncnc3sc(C(=O)NCc4cn(C)cn4)c(C)c23)CC1` [Example 186], the concentration for half-maximal inhibition (IC50) was 20 nM.

For `CO[C@H]1CC[C@H](Oc2cc(F)ccc2Nc2ncnc3sc(C(=O)NCC#CCN(C)C)c(C)c23)CC1` [Example 187], it took 21 nM to reach half-maximal inhibition (IC50).

In the case of `CNC(=O)CNC(=O)c1sc2ncnc(Nc3ccc(F)cc3O[C@H]3CC[C@H](OC)CC3)c2c1C` [Example 188], the midpoint of inhibition, the IC50, lay at 20 nM.

As to `CO[C@H]1CC[C@H](Oc2cc(F)ccc2Nc2ncnc3sc(C(=O)N[C@H]4C[C@@H]4N)c(C)c23)CC1` [Example 189], the IC50 came to 28 nM.

`CO[C@H]1CC[C@H](Oc2cc(F)ccc2Nc2ncnc3sc(C(=O)NCCN4CCCCC4)c(C)c23)CC1` [Example 190] showed a concentration for half-maximal inhibition (IC50) of 30 nM.

Regarding `CO[C@H]1CC[C@H](Oc2cc(F)ccc2Nc2ncnc3sc(C(=O)NCCCN4CCOCC4)c(C)c23)CC1` [Example 192, 4-[4-Fluoro-2-(trans-4-methoxy-cyclohexyloxy)-phenylamino]-5-methyl-thieno[2,3-d]pyrimidine-6-carboxylic acid (3-morpholin-4-yl-propyl)-amide], the IC50 is 21 nM.

Turning to `CO[C@H]1CC[C@H](Oc2cc(F)ccc2Nc2ncnc3sc(C(=O)NCCN(C)C)c(C)c23)CC1` [Example 193], the concentration for half-maximal inhibition (IC50) amounted to 43 nM.

`CO[C@H]1CC[C@H](Oc2cc(F)ccc2Nc2ncnc3sc(C(=O)NCCCO)c(C)c23)CC1` [Example 195] came in with a 50% inhibitory concentration (IC50) of 19 nM.

Regarding `CO[C@H]1CC[C@H](Oc2cc(F)ccc2Nc2ncnc3sc(C(=O)NCCO)c(C)c23)CC1` [Example 196], half-maximal inhibition (IC50) required 17 nM. This IC50 and that of the molecule before are within 1.5-fold of each other.

`CO[C@H]1CC[C@H](Oc2cc(F)ccc2Nc2ncnc3sc(C(=O)NCCCn4ccnc4)c(C)c23)CC1` [Example 197] returned a 50% inhibitory concentration (IC50) of 1 nM.

`CO[C@H]1CC[C@H](Oc2cc(F)ccc2Nc2ncnc3sc(C(=O)NCC4CN(C)CCO4)c(C)c23)CC1` (some centres unmarked) [Example 199] came in with a half-maximal inhibitory concentration (IC50) of 15 nM.
